Values of other authors as cited in patent publication US20130183383A1, “PHARMACEUTICAL COMPOSITIONS FOR CALANOLIDES, THEIR DERIVATIVES AND ANALOGUES, AND PROCESS FOR PRODUCING THE SAME” (Craun Research SDN BHD, priority 2010, published 2013).

Conditions: soft gelatin capsules containing 100 mg (+)-calanolide A in oil-based / sesame oil-based vehicle

Bioavailability: poor bioavailability
Structure (SMILES): CCCc1cc(=O)oc2c3c(c4c(c12)OC(C)(C)C=C4)O[C@H](C)[C@@H](C)[C@@H]3O [calanolide A, (+)-Calanolide A]
